Drawing on ChEMBL document CHEMBL6087466, “The Potential of PARP Inhibitors as Antitumor Drugs and the Perspective of Molecular Design” (J Med Chem, 2025), this text covers IC50 for three molecules.

Assay [1] concerns the target Poly [ADP-ribose] polymerase 1 (Homo sapiens, UniProt P09874). As to the kind of experiment: Inhibition of PARP1 (unknown origin).
In the next assay the test system is SK-OV-3. The assay is described as follows: Antiproliferative activity against human SK-OV-3 cells assessed as reduction in cell growth by SRB assay. Format: functional, cell-based. For orientation: In SRB staining, fixed cells bind dye roughly in proportion to their protein.

Chain of Poly [ADP-ribose] polymerase 1 (P09874 whole entry): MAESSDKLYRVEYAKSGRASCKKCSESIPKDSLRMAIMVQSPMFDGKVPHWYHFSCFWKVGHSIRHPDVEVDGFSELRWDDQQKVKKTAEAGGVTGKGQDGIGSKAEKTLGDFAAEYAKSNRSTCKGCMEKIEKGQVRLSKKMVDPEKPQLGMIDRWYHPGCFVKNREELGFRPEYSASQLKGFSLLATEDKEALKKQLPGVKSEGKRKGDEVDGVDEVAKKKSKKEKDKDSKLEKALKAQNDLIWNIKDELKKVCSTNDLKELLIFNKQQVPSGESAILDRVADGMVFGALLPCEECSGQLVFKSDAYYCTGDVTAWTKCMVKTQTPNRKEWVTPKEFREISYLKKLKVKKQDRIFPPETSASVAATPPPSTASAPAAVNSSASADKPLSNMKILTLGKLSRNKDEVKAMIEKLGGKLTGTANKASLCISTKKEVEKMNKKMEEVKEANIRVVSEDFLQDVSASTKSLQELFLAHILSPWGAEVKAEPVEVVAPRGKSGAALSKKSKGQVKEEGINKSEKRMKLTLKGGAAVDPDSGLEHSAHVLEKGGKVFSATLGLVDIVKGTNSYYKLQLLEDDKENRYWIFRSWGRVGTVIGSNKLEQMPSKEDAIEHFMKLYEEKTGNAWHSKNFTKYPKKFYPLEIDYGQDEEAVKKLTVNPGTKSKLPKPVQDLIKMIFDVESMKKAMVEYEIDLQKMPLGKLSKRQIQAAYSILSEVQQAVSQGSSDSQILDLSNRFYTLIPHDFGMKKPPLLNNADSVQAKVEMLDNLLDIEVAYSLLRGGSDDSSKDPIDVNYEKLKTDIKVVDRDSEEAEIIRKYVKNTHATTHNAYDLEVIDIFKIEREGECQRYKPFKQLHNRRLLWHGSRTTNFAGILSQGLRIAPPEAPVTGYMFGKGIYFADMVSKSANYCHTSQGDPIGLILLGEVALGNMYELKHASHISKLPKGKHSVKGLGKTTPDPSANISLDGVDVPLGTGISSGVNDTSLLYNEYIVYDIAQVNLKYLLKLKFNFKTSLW

By IC50 is commonly meant the concentration needed to halve the response being measured. `N#Cc1ccc(N2CCN([C@H]3C=C(c4cc5ncccc5c(=O)[nH]4)CC3)CC2)cc1` showed a 50% inhibitory concentration (IC50) in assay [1] of 1 nM.

The molecule `NC(=O)c1cccc2[nH]c(CCCCCCOc3cc(O)c4c(=O)cc(-c5ccccc5)oc4c3)nc12` showed an IC50 in assay [1] of 93 nM. With `CCNC(=S)N/N=C/c1ccc(-c2nc3c(oc4ccccc43)c(=O)[nH]2)cc1`, the IC50 in the assay with SK-OV-3 was 4980 nM; in assay [1] it was 26 nM.
